Laboratory results reported in publication PMC10458530, “Synthesis and Evaluation of ePSMA-DM1: A New Theranostic Small-Molecule Drug Conjugate (T-SMDC) for Prostate Cancer” (Pharmaceuticals, 2023).
“And” between values parts separate entries of the source, which are not always exact repeats. Equal entries are not always repeated. “Also recorded” adds a separate entry of the source. Where two headings read alike, the source gives them in different places. Non-standard residues stand in square brackets, D forms with d. Residues, ends and D or L forms follow the SMILES beside them. *: point of attachment. Propanoyl(3-SS-DM1) = COc1cc2cc(c1Cl)N(C)C(=O)C[C@H](OC(=O)[C@H](C)N(C)C(=O)CCSSCCC(=O)*)[C@]1(C)O[C@H]1[C@H](C)[C@@H]1C[C@@](O)(NC(=O)O1)[C@H](OC)/C=C/C=C(\C)C2; DOTA = O=C(O)CN1CCN(CC(=O)O)CCN(CC(=O)*)CCN(CC(=O)O)CC1; EuK = O=C(O)CC[C@H](NC(=O)N[C@@H](CCCCN*)C(=O)O)C(=O)O; Sta = CC(C)C[C@H](N)[C@@H](O)CC(=O)O; Ahx = NCCCCCC(=O)O

Key:
[1] = tested on: PSMA-positive LS174T cells; experiment: Resazurin-based cytotoxicity assay; format: cell-based, human; conditions: for cell viability: 48 h post treatment
Procedure: LS174T human colon carcinoma cells transfected with human PSMA were cultured in RPMI-1640 media supplemented with 2 mM glutamine, 10% fetal bovine serum (FBS) and 0.3 mg/mL G418 (Geneticin, Sigma Aldrich, Burlington, MA, USA). The cells were provided by Dr. Sandra Heskamp (Radboud UMC, Nijmegen, The Netherlands).
A resazurin in vitro toxicology assay kit was used to determine cytotoxicity. Briefly, 5 × 10^3 LS174T cells were seeded in a volume of 100 µL per well in 96-well plates and incubated at 37 °C with 5% CO2 for 24 h before the experiment. After incubation, the media were removed, and the wells were washed once with PBS. Then, ePSMA-DM1 at the concentrations of 1, 10, 100 and 1000 nM and the positive control DM1 (1000 nM) were prepared in culture media (RPMI-1640 media supplemented with 2 mM glutamine, 10% fetal bovine serum (FBS) and 0.3 mg/mL G418). Media and PSMA-617 (100 nM) were used as negative controls. Cells were incubated with 100 µL of the tested compounds for 48 and 72 h at 37 °C with 5% CO2. After incubation, media were removed, and each well was washed once with PBS. Next, 100 µL of 10% resazurin solution (TOX8, Sigma-Aldrich) in culture media was added to each well and incubated for 2.5 h. Fluorescence was measured using the HIDEX Sense Optical System with excitation at 544 nm and emission at 590 nm. Data were analyzed using GraphPad Prism 9.0 and expressed as cell viability (%). The experiments were performed in triplicate.

Recombinant human PSMA = target: T1, Recombinant human PSMA (Homo sapiens, UniProt Q04609); experiment: NAALADase enzymatic assay (binding to PSMA); format: biochemical
T1 construct: purchased R & D systems, Abingdon, UK
T1 sequence (Q04609 whole entry): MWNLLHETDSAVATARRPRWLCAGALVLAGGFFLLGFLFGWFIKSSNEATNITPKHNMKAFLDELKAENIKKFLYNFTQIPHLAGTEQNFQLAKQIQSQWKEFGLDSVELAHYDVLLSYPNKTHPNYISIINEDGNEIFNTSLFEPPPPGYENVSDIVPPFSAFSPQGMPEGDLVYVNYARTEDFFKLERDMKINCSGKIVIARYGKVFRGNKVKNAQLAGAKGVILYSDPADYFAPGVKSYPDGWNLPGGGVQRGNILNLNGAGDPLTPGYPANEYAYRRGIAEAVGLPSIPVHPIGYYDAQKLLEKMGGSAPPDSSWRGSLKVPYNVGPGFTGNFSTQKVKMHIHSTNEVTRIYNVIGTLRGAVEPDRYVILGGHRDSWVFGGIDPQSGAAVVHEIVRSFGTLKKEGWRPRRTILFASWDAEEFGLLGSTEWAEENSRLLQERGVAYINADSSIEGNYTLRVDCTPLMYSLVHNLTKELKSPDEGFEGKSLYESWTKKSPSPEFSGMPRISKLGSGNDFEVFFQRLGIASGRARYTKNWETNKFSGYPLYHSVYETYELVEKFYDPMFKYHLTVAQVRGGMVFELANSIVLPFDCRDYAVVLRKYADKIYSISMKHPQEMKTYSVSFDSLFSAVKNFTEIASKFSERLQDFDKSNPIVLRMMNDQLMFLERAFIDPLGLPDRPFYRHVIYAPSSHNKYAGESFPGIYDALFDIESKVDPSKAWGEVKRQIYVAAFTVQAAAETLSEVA
Procedure: Recombinant human PSMA (rhPSMA; R & D systems, Abingdon, UK) was diluted in assay buffer (50 mM HEPES, 0.1 M NaCl, pH 7.5) to 0.4 μg/mL. The substrate Ac-Asp-Glu (40 μM) was mixed with ePSMA-DM1 or with a reference (PSMA-617) at concentrations ranging from 10^−6 to 10^−13 M in a final volume of 12.5 μL assay buffer. The mixtures were combined with 12.5 μL of the rhPSMA solution and incubated for 1 h at 37 °C in 384-well black polystyrene microplates (ThermoFisher, Bleiswijk, The Netherlands). A volume of 25 μL of a working solution of the Amplex Red glutamic acid kit (ThermoFisher, Bleiswijk, The Netherlands) was added and incubated at 37 °C for 30 min. Release of glutamate was measured by fluorescence with a HIDEX Sense Optical System (Goedereede, The Netherlands) set at 535 nm (excitation) and 590 nm (emission). Data were normalized, and one-site total binding regression was applied for analysis with GraphPad Prism v9.0 (GraphPad Software, San Diego, CA, USA).

[2] = tested on: BALB/c nu/nu LS174T xenografted mice; experiment: Ex vivo biodistribution; format: in vivo, mouse; conditions: estimated, one-phase decay
Procedure: Animal experiments were performed using male BALB/c nude mice (8–10 weeks old; Janvier Labs, Le Genest-Saint-Isle, France). Animals were housed in individually ventilated cages (Blue line IVC, 2 mice per cage) under sterile standard conditions with cage enrichments present and free access to animal chow (Sniff GmbH, Soest, Germany) and water. They were acclimated for 1 week prior to experiments. Mice were subcutaneously inoculated with 4.0 × 10^6 LS174T cells in the right flank diluted in 100 μL of cell suspension […]. The average tumor volume size per group (n = 4) was of 206.2 ± 7.9 mm^3 (average weight of 105.8 ± 7.3 mg) after non-blinded grouping to enable homogenous tumor size distribution. [^111In]In-ePSMA-DM1 was injected intravenously via the tail vein. All experiments were approved by the institutional Animal Welfare Committee and were conducted in accordance to the guidelines of the Revised Dutch Act on Animal Experimentation (WOD).
Mice were intravenously injected with ~1 nmol of [^111In]In-ePSMA-DM1 (5 MBq). Mice (n = 4/timepoint) were euthanized by cervical dislocation at 1, 4 and 24 h p.i. A block group (co-injection of 50 nmol of PSMA-617) was included, and mice were euthanized at 4 h p.i. Organs (blood, heart, lungs, liver, spleen, stomach, intestines, pancreas, kidneys, muscle, skin, bone and prostate) and the tumors were collected in pre-weighed tubes, weighed after organ collection, and measured in the γ-counter, for which the calibration factor was determined by measuring different known activities of In-111. Activity was corrected for decay, and uptake was expressed as percentage of the injected dose per gram of the tissue (% ID/g). The biological half-lives in tissues of [^111In]In-ePSMA-DM1 were determined using a one-phase decay algorithm in GraphPad Prism 9.0 (GraphPad Software, Boston, MA, USA).

Stability in PBS = format: physicochemical; conditions: 24 h post incubation, 37 °C
Procedure: [^111In]In-ePSMA-DM1 (~10 MBq, 20 µL) was mixed with 80 μL of PBS (0.01 M, pH 7.4) and incubated at 37 °C for up to 24 h. A sample of the PBS solution was loaded directly onto the radio-HPLC at 1, 4 and 24 h post incubation.

Stability in mouse serum = format: in vitro ADME; conditions: 24 h post incubation, 37 °C
Procedure: [^111In]In-ePSMA-DM1 (~30 MBq, 70 µL) was mixed with 330 μL of mouse serum and incubated at 37 °C for up to 24 h. To a separate vial containing 50 µL of acetonitrile, 50 μL of the mouse serum solution was added after 1, 4 and 24 h of incubation. The sample was centrifuged at 5000× g for 20 min. The supernatant was analyzed by radio-HPLC.

[3] = Glutathione (GSH) stability / drug release assay; format: in vitro ADME
Procedure: The protocol was adapted from the literature. A 5 mM solution of L-glutathione was prepared in PBS, and 990 μL aliquots were dispensed into Eppendorf tubes. To each tube, 10 μL of a solution of ePSMA-DM1 (1 mM) in MeOH was added, and the mixtures were incubated at 37 °C. Then 50 μL aliquots of the solution were taken at 10 min, 30 min, 1, 2, 4 and 6 h and analyzed by LC-MS. The experiments were performed in triplicate.

## COc1cc2cc(c1Cl)N(C)C(=O)C[C@H](OC(=O)[C@H](C)N(C)C(=O)CCS)[C@]1(C)O[C@H]1[C@H](C)[C@@H]1C[C@@](O)(NC(=O)O1)[C@H](OC)/C=C/C=C(\C)C2 [DM1, Mertansine, reference compound]
[1]; 1000 nM
  cell viability: ~ 50%
[1]; 1000 nM, 72 h
  decrease in cell viability: more than 85%

## O=C(O)CC[C@H](NC(=O)N[C@@H](CCCCNC(=O)[C@H](Cc1ccc2ccccc2c1)NC(=O)[C@H]1CC[C@H](CNC(=O)CN2CCN(CC(=O)O)CCN(CC(=O)O)CCN(CC(=O)O)CC2)CC1)C(=O)O)C(=O)O [PSMA-617, reference compound]
[1]; 100 nM, negative control
  decrease in viability: not observed
Recombinant human PSMA; NAALADase assay, rhPSMA, substrate Ac-Asp-Glu, read-out: IC50 (binding affinity to PSMA)
  IC50: 2.19 ± 0.78 nM

## COc1cc2cc(c1Cl)N(C)C(=O)C[C@H](OC(=O)[C@H](C)N(C)C(=O)CCSSCCC(=O)NCCCC[C@H](NC(=O)CN1CCN(CC(=O)O)CCN(CC(=O)O)CCN(CC(=O)O)CC1)C(=O)N[C@@H](CC(=O)O)C(=O)N[C@@H](Cc1ccccc1)C(=O)N[C@@H](CC(C)C)[C@@H](O)CC(=O)NCCCCCC(=O)NCCCC[C@H](NC(=O)N[C@@H](CCC(=O)O)C(=O)O)C(=O)O)[C@]1(C)O[C@H]1[C@H](C)[C@@H]1C[C@@](O)(NC(=O)O1)[C@H](OC)/C=C/C=C(\C)C2 [[^111In]In-ePSMA-DM1] [metal not drawn] ({DOTA}-K(Propanoyl(3-SS-DM1))DF[Sta][Ahx]-EuK)
[2]
  half-life in the blood: 1.5 h
  half-life in the tumor: 2.1 h
Stability in PBS
  Stability in PBS (%): 90.9%
Stability in mouse serum
  Stability in Mouse Serum (%): 82.9%

## COc1cc2cc(c1Cl)N(C)C(=O)C[C@H](OC(=O)[C@H](C)N(C)C(=O)CCSSCCC(=O)NCCCC[C@H](NC(=O)CN1CCN(CC(=O)O)CCN(CC(=O)O)CCN(CC(=O)O)CC1)C(=O)N[C@@H](CC(=O)O)C(=O)N[C@@H](Cc1ccccc1)C(=O)N[C@@H](CC(C)C)[C@@H](O)CC(=O)NCCCCCC(=O)NCCCC[C@H](NC(=O)N[C@@H](CCC(=O)O)C(=O)O)C(=O)O)[C@]1(C)O[C@H]1[C@H](C)[C@@H]1C[C@@](O)(NC(=O)O1)[C@H](OC)/C=C/C=C(\C)C2 [[^177Lu]Lu-ePSMA-DM1] [metal not drawn] ({DOTA}-K(Propanoyl(3-SS-DM1))DF[Sta][Ahx]-EuK)
Stability in PBS
  Stability in PBS (%): 81.4%
Stability in mouse serum
  Stability in Mouse Serum (%): 91.2%

## COc1cc2cc(c1Cl)N(C)C(=O)C[C@H](OC(=O)[C@H](C)N(C)C(=O)CCSSCCC(=O)NCCCC[C@H](NC(=O)CN1CCN(CC(=O)O)CCN(CC(=O)O)CCN(CC(=O)O)CC1)C(=O)N[C@@H](CC(=O)O)C(=O)N[C@@H](Cc1ccccc1)C(=O)N[C@@H](CC(C)C)[C@@H](O)CC(=O)NCCCCCC(=O)NCCCC[C@H](NC(=O)N[C@@H](CCC(=O)O)C(=O)O)C(=O)O)[C@]1(C)O[C@H]1[C@H](C)[C@@H]1C[C@@](O)(NC(=O)O1)[C@H](OC)/C=C/C=C(\C)C2 [ePSMA-DM1] ({DOTA}-K(Propanoyl(3-SS-DM1))DF[Sta][Ahx]-EuK)
[3]; after 2 h, 5 mM GSH
  drug released: ~ 50% and 50%
[3]; buffer, 5 mM GSH in PBS, 37 °C, read-out: half-life in a reducing environment (converted)
  half-life at 10 µM: 2 h
[1]; 1 nM, 48 and 72 h
  cytotoxic effect: not sufficient to elicit cell death; also recorded: not observed
[1]; 100 nM
  cell viability: ~ 50%
[1]; 1000 nM
  cell viability: ~ 50%
Recombinant human PSMA
  IC50: 45.3 ± 1.84 nM
